Test results as given in patent US8916526B2, “Flavanone derivative” (National University Corporation Okayama University, priority 2009, dated 2014).
Converted amounts (≈) assume the structure as drawn.

Assays:
[1] = system: MRSA N315; assay: In vitro infectivity assay (MIC), broth dilution, Exp. Ex. 1-1; format: cell-based, Staphylococcus aureus; conditions: MRSA N315, Mueller-Hinton broth, 35° C., 24 hours; for MIC: Staphylococcus aureus, read-out: MIC MRSA N315
Procedure: (§1) The antibacterial activities were measured based on broth dilution techniques of international standards (Clinical Laboratory Standards Institute: CLSI). The activities were shown by minimum inhibitory concentrations (MICs) determined by inoculating the above-mentioned strains at a concentration of about 10^5 […] into Mueller-Hinton broth (manufactured by Difco) containing 0.85% NaCl in 96-well microplates and incubating the plates at 35° C. for 24 hours. Measurement was carried out three times.
(§2) The antibacterial activities of the compounds of the present invention against various strains such as methicillin-resistant Staphylococcus aureus (MRSA), vancomycin intermediate-resistant Staphylococcus aureus (VISA), methicillin-sensitive Staphylococcus aureus (MSSA), and vancomycin-resistant enterococci (VRE) were examined. Of the bacteria used in MIC measurement in this test example, clinical bacteria of MRSA (OM481 strain and OM584 strain) were supplied from Okayama University Hospital (Japan). An MRSA strain N315, a vancomycin intermediate-resistant Staphylococcus aureus (VISA) strain Mu50, and a methicillin-sensitive Staphylococcus aureus (MSSA) strain FDA 209P were used as controls. Vancomycin-resistant enterococcus (VRE) strains NCTC 12201 and FN-1 were supplied from the National Institute of Infectious Disease (Japan).

[2] = system: MRSA OM481; assay: as above; format: cell-based, Staphylococcus aureus; conditions: MRSA OM481, Mueller-Hinton broth, 35° C., 24 hours; for MIC: Staphylococcus aureus, read-out: MIC MRSA OM481
Procedure: as §1, §2

[3] = system: MRSA OM58; assay: as above; format: cell-based, Staphylococcus aureus; conditions: MRSA OM58, Mueller-Hinton broth, 35° C., 24 hours; for MIC: Staphylococcus aureus, read-out: MIC MRSA OM58
Procedure: as §1, §2

[4] = system: MSSA FDA 209P; assay: as above; format: cell-based, Staphylococcus aureus; conditions: MSSA FDA 209P, Mueller-Hinton broth, 35° C., 24 hours; for MIC: Staphylococcus aureus, read-out: MIC MSS 209P
Procedure: as §1, §2

[5] = system: VISA Mu50; assay: as above; format: cell-based, Staphylococcus aureus; conditions: VISA Mu50, Mueller-Hinton broth, 35° C., 24 hours
Procedure: as §1, §2

[6] = system: VRE FN-1; assay: as above; format: cell-based, enterococci; conditions: VRE FN-1, Mueller-Hinton broth, 35° C., 24 hours
Procedure: as §1, §2

[7] = system: VRE NCTC12201; assay: as above; format: cell-based, enterococci; conditions: VRE NCTC12201, Mueller-Hinton broth, 35° C., 24 hours
Procedure: as §1, §2

[8] = biological target: T1, DNA gyrase of Escherichia coli (Escherichia coli, UniProt P0AES4+P0AES6); assay: DNA gyrase inhibition (supercoiling assay kit), Exp. Ex. 1-2; format: biochemical; conditions: E. coli DNA gyrase supercoiling, relaxed pBR322, 37° C., 30 minutes; for IC50: read-out: Gyrase inhibitory activity IC50 (converted)
T1 construct: purchased John Innes Enterprises #K0001
Procedure: (§3) As a kit for measurement of DNA gyrase of Escherichia coli, a product purchased from John Innes Enterprises (Gyrase Supercoiling assay kit #K0001) was used. Relaxed DNA was modified with gyrase into supercoiled DNA, and reaction products were separated by electrophoresis depending on the sizes of the molecular weights to examine anti-gyrase effects (IC50). One unit (1 U) of DNA gyrase and […] of relaxed pBR322 DNA were added to […] of the reaction solution, and the mixture was allowed to react at 37° C. for 30 minutes in the presence of 35 mM Tris-HCl (pH 7.5), 24 mM KCl, 4 mM MgCl2, 2 mM DTT, 1.8 mM spermidine, 1 mM ATP, 6.5% (w/v) glycerol, and 0.1 mg/ml BSA. The reactions were stopped using […] of a reaction stop solution (40% sucrose, 100 mM Tris-HCl (pH 7.5), 1 mM EDTA, 0.5 mg/ml bromophenol blue).

[9] = system: Methicillin sensitive S. aureus 209P; assay: In vitro infectivity assay (MIC), Exp. Ex. 2-1; format: cell-based, Staphylococcus aureus; conditions: Staphylococcus aureus, 209P / MSSA; Gram-positive; microdilution, MIC after 24 h; read-out: MIC MSSA 209P
Procedure: as §1
as §2, with “vancomycin-resistant enterococci (VRE),” for “methicillin-resistant Staphylococcus aureus (MRSA),”, “(VISA), methicillin-resistant Staphylococcus aureus (MRSA), and” for “(VISA),”, “(MSSA)” for “(MSSA), and vancomycin-resistant enterococci (VRE)”

[10] = system: Methicillin-resistant S. aureus COL; assay: In vitro infectivity assay (MIC), Exp. Ex. 2-1; format: cell-based, Staphylococcus aureus; conditions: Staphylococcus aureus, MRSA; Gram-positive; microdilution, MIC after 24 h
Procedure: as §1
as §2, with “vancomycin-resistant enterococci (VRE),” for “methicillin-resistant Staphylococcus aureus (MRSA),”, “(VISA), methicillin-resistant Staphylococcus aureus (MRSA), and” for “(VISA),”, “(MSSA)” for “(MSSA), and vancomycin-resistant enterococci (VRE)”

[11] = system: Methicillin-resistant S. aureus N315; assay: In vitro infectivity assay (MIC), Exp. Ex. 2-1; format: cell-based, Staphylococcus aureus; conditions: Staphylococcus aureus, MRSA; Gram-positive; microdilution, MIC after 24 h; read-out: MIC MRSA N315
Procedure: as §1
as §2, with “vancomycin-resistant enterococci (VRE),” for “methicillin-resistant Staphylococcus aureus (MRSA),”, “(VISA), methicillin-resistant Staphylococcus aureus (MRSA), and” for “(VISA),”, “(MSSA)” for “(MSSA), and vancomycin-resistant enterococci (VRE)”

[12] = system: Methicillin-resistant S. aureus OM481; assay: In vitro infectivity assay (MIC), Exp. Ex. 2-1; format: cell-based, Staphylococcus aureus; conditions: Staphylococcus aureus, MRSA; Gram-positive; microdilution, MIC after 24 h; read-out: MIC MRSA OM481
Procedure: as §1
as §2, with “vancomycin-resistant enterococci (VRE),” for “methicillin-resistant Staphylococcus aureus (MRSA),”, “(VISA), methicillin-resistant Staphylococcus aureus (MRSA), and” for “(VISA),”, “(MSSA)” for “(MSSA), and vancomycin-resistant enterococci (VRE)”

[13] = system: Methicillin-resistant S. aureus OM584; assay: In vitro infectivity assay (MIC), Exp. Ex. 2-1; format: cell-based, Staphylococcus aureus; conditions: Staphylococcus aureus, MRSA; Gram-positive; microdilution, MIC after 24 h; read-out: MIC MRSA OM584
Procedure: as §1
as §2, with “vancomycin-resistant enterococci (VRE),” for “methicillin-resistant Staphylococcus aureus (MRSA),”, “(VISA), methicillin-resistant Staphylococcus aureus (MRSA), and” for “(VISA),”, “(MSSA)” for “(MSSA), and vancomycin-resistant enterococci (VRE)”

[14] = system: Streptococcus pneumoniae R6; assay: In vitro infectivity assay (MIC), Exp. Ex. 2-1; format: cell-based; conditions: Streptococcus pneumoniae, R6, 24 h, read-out: MIC S. Pneumoniae R6
[15] = system: Escherichia coli K-12; assay: Antibacterial activity (MIC) against Gram-negative strains, microdilution; format: cell-based; conditions: K12, MIC after 24 h, read-out: MIC (Gram-nagative) K-12
Procedure: as §1

[16] = system: Pseodomonas aeruginosa PAOI; assay: as above; format: cell-based; conditions: MIC after 24 h, read-out: MIC (Gram-nagative) PAO1
Procedure: as §1

[17] = biological target: T2, E. coli DNA gyrase (Escherichia coli, UniProt P0AES4+P0AES6); assay: DNA gyrase inhibition (supercoiling kit), Exp. Ex. 2-2; format: biochemical
T2 construct: purchased John Innes Enterprises #K0001
Procedure: as §3, with “1” for “One”

T1 sequence (P0AES4 whole entry, one chain of several): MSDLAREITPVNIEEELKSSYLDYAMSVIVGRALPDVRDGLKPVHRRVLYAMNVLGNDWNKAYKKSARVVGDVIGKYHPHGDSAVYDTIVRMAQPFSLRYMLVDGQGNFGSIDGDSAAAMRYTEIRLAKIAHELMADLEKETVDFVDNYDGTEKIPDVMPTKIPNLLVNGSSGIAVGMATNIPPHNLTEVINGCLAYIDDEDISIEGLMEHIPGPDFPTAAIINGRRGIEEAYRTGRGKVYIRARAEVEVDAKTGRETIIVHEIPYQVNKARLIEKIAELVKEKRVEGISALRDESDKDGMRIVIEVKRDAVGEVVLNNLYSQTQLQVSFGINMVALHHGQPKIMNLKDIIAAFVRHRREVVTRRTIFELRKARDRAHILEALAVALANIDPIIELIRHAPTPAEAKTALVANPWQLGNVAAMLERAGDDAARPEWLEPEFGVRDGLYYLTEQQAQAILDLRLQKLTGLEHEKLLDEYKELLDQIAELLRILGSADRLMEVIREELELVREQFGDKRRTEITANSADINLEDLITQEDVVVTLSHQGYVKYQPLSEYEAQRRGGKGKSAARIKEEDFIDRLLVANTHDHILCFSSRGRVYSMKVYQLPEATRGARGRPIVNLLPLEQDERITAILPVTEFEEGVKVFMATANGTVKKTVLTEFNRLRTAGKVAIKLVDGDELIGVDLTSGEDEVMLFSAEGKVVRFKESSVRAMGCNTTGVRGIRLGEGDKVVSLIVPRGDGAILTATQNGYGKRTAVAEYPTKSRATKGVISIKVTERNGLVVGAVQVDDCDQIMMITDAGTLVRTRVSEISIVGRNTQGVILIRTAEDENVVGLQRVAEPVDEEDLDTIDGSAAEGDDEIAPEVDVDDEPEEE
T2 sequence (P0AES4 whole entry, one chain of several): as above

With O=C(CCc1ccc(F)cc1)c1cc(O)c2c(=O)c(C(=O)CCc3ccc(F)cc3)c(-c3ccc(O)c(O)c3)oc2c1 [Compound 2b, 2-(3′,4′-Dihydroxyphenyl)-5-hydroxy-3,7-di-(4-fluorophenylpropanoyl)-4H-chromen-4-one] the melting point was 119 to 121 °C.

In the case of O=C(CCc1ccc(O)cc1)O[C@H]1[C@H](Oc2c(-c3ccc(O)c(O)c3)oc3cc(O)cc(O)c3c2=O)O[C@H](CO)[C@@H](O)[C@@H]1OC(=O)CCc1ccc(O)cc1 [Compound 15a, 2-(3′,4′-Dihydroxy)-5,7-dihydroxy-3-β-D-(2″,3″-di-p-hydroxyphenylethylcarboxy)glucosyl-4H-chromen-4-one], the “MIC MRSA N315” value [1] is reported as 4 µg/mL (≈ 5.26 µM), the “MIC MRSA OM481” value [2] is reported as 4 µg/mL (≈ 5.26 µM) and the “MIC MRSA OM58” value [3] is reported as 4 µg/mL (≈ 5.26 µM). The “MIC MSS 209P” value [4] was 4 µg/mL (≈ 5.26 µM), the “MIC VISA Mu50” value [5] was 4 µg/mL (≈ 5.26 µM) and the “MIC VRE FN-1” value [6] was 8 µg/mL (≈ 10.5 µM). For the same compound, the “MIC VRE NCTC 12201” value [7] was 8 µg/mL (≈ 10.5 µM) and the “Gyrase inhibitory activity IC50” value [8] was 2.54 µg/mL.

With O=C(O[C@H]1[C@H](Oc2c(-c3ccc(O)c(O)c3)oc3cc(O)cc(O)c3c2=O)O[C@H](CO)[C@@H](O)[C@@H]1OC(=O)c1ccc(F)cc1)c1ccc(F)cc1 [Compound 15g, 2-(3′,4′-Dihydroxy)-5,7-dihydroxy-3-β-D-(2″,3″-di-p-flurobenzoyloxy)glucosyl-4H-chromen-4-one] the “MIC MRSA N315” value [1] was 2 µg/mL (≈ 2.82 µM), the “MIC MRSA OM481” value [2] was 16 µg/mL (≈ 22.6 µM) and the “MIC MRSA OM58” value [3] was 16 µg/mL (≈ 22.6 µM). The “MIC MSS 209P” value [4] was 2 µg/mL (≈ 2.82 µM), the “MIC VISA Mu50” value [5] was 2 µg/mL (≈ 2.82 µM) and the “MIC VRE FN-1” value [6] was 8 µg/mL (≈ 11.3 µM). For the same compound, the “MIC VRE NCTC 12201” value [7] was 8 µg/mL (≈ 11.3 µM) and the “Gyrase inhibitory activity IC50” value [8] was 4.25 µg/mL.

In the case of CCOc1ccc(CCC(=O)O[C@H]2[C@H](Oc3c(-c4ccc(O)c(O)c4)oc4cc(O)cc(O)c4c3=O)O[C@H](CO)[C@@H](O)[C@@H]2OC(=O)CCc2ccc(OCC)cc2)cc1 [Compound 15b, 2-(3′,4′-Dihydroxy)-5,7-dihydroxy-3-β-D-(2″,3″-di-p-ethoxyphenylethylcarboxy)glucosyl-4H-chromen-4-one], the “MIC MRSA N315” value [1] is reported as 2 µg/mL (≈ 2.45 µM), the “MIC MRSA OM481” value [2] is reported as 4 µg/mL (≈ 4.9 µM) and the “MIC MRSA OM58” value [3] is reported as 8 µg/mL (≈ 9.79 µM). The “MIC MSS 209P” value [4] was 2 µg/mL (≈ 2.45 µM), the “MIC VISA Mu50” value [5] was 4 µg/mL (≈ 4.9 µM) and the “MIC VRE FN-1” value [6] was 8 µg/mL (≈ 9.79 µM). For the same compound, the “MIC VRE NCTC 12201” value [7] was 8 µg/mL (≈ 9.79 µM) and the “Gyrase inhibitory activity IC50” value [8] was 9.23 µg/mL.

Compound Cc1ccc(CCC(=O)c2cc(O)c3c(=O)c(C(=O)CCc4ccc(C)cc4)c(-c4ccc(O)c(O)c4)oc3c2)cc1 [Compound 2a, 2-(3′,4′-Dihydroxyphenyl)-5-hydroxy-3,7-di-(4-methylphenylpropanoyl)-4H-chromen-4-one] has a melting point of 105 to 107 °C.

For O=c1c(O[C@@H]2O[C@H](CO)[C@@H](O)[C@H](O)[C@H]2O)c(-c2ccc(O)c(O)c2)oc2cc(O)cc(O)c12 [Compound 17, 2-(3′4′-Dihydroxy)-5,7-dihydroxy-3-β-D-glucosyl-4H-chromen-4-one], the MIC [1] was > 128 µg/mL, the MIC [2] was > 128 µg/mL and the MIC [3] was > 128 µg/mL. The MIC [4] was > 128 µg/mL, the MIC ([5]; Staphylococcus aureus, read-out: MIC VISA Mu50) was > 128 µg/mL and the MIC ([6]; Enterococcus, read-out: MIC VRE FN-1) was > 128 µg/mL. For the same compound, the MIC ([7]; Enterococcus, read-out: MIC VRE NCTC12201) was > 128 µg/mL and the IC50 [8] was > 25800 nM.

Work on CCn1cc(C(=O)O)c(=O)c2cc(F)c(N3CCNCC3)cc21 [Norfloxacin, norfloxacin, reference compound] yielded an MIC [1] of 2 µg/mL (≈ 6.26 µM), an MIC [2] of 128 µg/mL (≈ 401 µM) and an MIC [3] of 64 µg/mL (≈ 200 µM). The MIC [4] was 0.5 µg/mL (≈ 1.57 µM), the IC50 [8] was 908 nM and the MIC [9] was 0.5 µg/mL (≈ 1.57 µM). For the same compound, the MIC [10] was 1 µg/mL (≈ 3.13 µM), the MIC [11] was 2 µg/mL (≈ 6.26 µM) and the MIC [12] was 64 µg/mL (≈ 200 µM). The MIC [13] was 128 µg/mL (≈ 401 µM), the MIC [14] was 0.25 µg/mL (≈ 0.783 µM) and the MIC [15] was 0.25 µg/mL (≈ 0.783 µM). For the same compound, the MIC [16] was 0.25 µg/mL (≈ 0.783 µM) and the IC50 [17] was 90 nM.

O=c1c([C@@H]2O[C@H](CO)[C@H](O)[C@H](O)[C@H]2O)c(-c2ccc(O)c(O)c2)oc2cc([C@@H]3O[C@H](CO)[C@H](O)[C@H](O)[C@H]3O)cc(O)c12 [Compound 6, 2-(3′,4′-Dihydroxyphenyl)-5-hydroxy-3,7-di-β-D-galactosyl-4H-chromen-4-one] gave a melting point of 215 to 217 °C.
